{
  "source": "patent US20170348369A1",
  "about": "“Plant Extract and Its Therapeutic Use” (Viridis Pharmaceutical Limited, priority 2008, published 2017)",
  "target": "T1, purified human DNA topoisomerase IIα (Homo sapiens, UniProt P11388)",
  "T1 construct": "purchased TopoGEN",
  "T1 sequence (P11388 whole entry)": "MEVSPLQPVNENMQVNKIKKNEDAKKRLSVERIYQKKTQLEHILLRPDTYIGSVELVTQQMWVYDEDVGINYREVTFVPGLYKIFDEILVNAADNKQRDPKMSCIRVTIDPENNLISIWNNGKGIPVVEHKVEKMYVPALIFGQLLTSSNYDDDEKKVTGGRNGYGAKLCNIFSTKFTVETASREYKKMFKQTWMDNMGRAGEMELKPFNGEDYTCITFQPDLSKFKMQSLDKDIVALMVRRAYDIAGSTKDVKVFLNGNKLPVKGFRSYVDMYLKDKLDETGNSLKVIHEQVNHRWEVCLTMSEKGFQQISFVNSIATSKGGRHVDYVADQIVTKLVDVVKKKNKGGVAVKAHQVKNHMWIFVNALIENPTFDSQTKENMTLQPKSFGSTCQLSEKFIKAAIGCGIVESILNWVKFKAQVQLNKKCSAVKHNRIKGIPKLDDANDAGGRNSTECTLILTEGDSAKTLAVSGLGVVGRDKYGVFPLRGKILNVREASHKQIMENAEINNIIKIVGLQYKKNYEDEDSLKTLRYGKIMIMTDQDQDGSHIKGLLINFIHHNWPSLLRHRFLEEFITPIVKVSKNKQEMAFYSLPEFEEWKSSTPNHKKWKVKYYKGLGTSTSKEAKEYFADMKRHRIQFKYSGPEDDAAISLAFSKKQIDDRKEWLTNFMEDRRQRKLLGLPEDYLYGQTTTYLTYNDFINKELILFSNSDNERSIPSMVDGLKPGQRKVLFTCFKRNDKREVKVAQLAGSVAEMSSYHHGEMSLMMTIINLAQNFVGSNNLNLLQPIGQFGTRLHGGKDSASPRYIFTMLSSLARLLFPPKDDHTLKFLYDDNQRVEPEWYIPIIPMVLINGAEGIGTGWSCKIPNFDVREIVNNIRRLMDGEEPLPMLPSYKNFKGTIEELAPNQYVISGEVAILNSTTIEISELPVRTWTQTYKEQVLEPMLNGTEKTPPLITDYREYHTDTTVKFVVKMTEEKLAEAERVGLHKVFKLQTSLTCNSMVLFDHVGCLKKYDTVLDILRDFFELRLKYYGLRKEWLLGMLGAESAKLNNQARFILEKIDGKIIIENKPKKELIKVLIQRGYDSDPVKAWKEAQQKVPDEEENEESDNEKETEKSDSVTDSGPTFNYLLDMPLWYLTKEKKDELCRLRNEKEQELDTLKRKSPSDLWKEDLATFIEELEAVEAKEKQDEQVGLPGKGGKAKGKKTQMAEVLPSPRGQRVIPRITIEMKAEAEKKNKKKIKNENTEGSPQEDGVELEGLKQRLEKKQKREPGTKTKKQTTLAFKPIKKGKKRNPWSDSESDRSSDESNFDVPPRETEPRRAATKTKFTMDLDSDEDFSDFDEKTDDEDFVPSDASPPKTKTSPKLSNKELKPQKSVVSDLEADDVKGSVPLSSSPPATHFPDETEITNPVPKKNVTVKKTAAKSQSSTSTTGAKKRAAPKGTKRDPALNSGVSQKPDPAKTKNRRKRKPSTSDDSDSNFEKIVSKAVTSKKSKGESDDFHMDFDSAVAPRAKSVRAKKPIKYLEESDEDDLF",
  "test": "Inhibition of topoisomerase II activity (TopoGEN Topoisomerase II Drug Screening Kit)",
  "format": "biochemical",
  "settings": "cell-free; FIG. 13; 0.3, 3, 30 μg/ml",
  "procedure": "With the liquid extract ViP-E_Matr'08_1102, prepared according to example 7, the liquid extract ViP-E_Matr08_1106, prepared according to example 8, or the liquid extract ViP-E_Matr'08_1105, prepared according to example 9, […] As positive control etoposide was carried along.\nThe inhibition of topoisomerase II was determined using purified human DNA topoisomerase Ilα and the “Topoisomerase II Drug Screening Kit” from TopoGEN. Thereby it was proceeded according to the manufacturer's protocol. The DNA was separated by electrophoresis on an agarose gel and visualized under UV light after staining with ethidium bromide. With this approach the relaxed DNA (topoisomers) generated by topoisomerase II could be detected and clearly separated from the supercoiled DNA substrate.",
  "data": [
    {"substance": "α-Bisabolol", "values": [
      {"measurement": "inhibition of topoisomerase II activity", "result": "did not influence the topoisomerase II activity in all tested concentrations"}
    ]}
  ]
}
